Results as given in patent US11583570B2, “Use of autoinducer-related pathway in inducing apoptosis and anti-infective therapy” (TSINGHUA UNIVERSITY, priority 2017, dated 2023).

Columns and labels:
T cell = experiment: Annexin V/PI apoptosis detection, T cells; type: cell-based; conditions: 10 and 20 μM
Protocol: (§1) Cell apoptosis was detected with Annexin V/PI apoptosis detection Kit. Briefly, cells were stimulated with HSLs or left untreated. 6 hrs later, cells were collected and stained with Annexin VFITC and PI for 15 min at RT, then the apoptotic effect was measured by flow cytometry. OT-I or OT-II splenocytes were pulsed with specific peptides or PMA and ionomycin mixture with or without HSLs or TNF α plus cycloheximide. 24 hrs later, cells and supernatants were collected separately. For OT-I activation, cells were stained with CD69 and CD8. For OT-II activation, cells were stained with CD69 and CD4. Cell activation was measured by flow cytometry. All supernatants were detected for IL-2 secretion by ELISA.

TNFR1 = molecular target: T1, TNFR1 (Mus musculus, UniProt P25118); experiment: Quantum dot-based single particle tracking, TNFR1; type: cell-based
T1 construct: To track individual TNFR1 on the cell membrane; endogenous in cells
T1 sequence (P25118 30-454): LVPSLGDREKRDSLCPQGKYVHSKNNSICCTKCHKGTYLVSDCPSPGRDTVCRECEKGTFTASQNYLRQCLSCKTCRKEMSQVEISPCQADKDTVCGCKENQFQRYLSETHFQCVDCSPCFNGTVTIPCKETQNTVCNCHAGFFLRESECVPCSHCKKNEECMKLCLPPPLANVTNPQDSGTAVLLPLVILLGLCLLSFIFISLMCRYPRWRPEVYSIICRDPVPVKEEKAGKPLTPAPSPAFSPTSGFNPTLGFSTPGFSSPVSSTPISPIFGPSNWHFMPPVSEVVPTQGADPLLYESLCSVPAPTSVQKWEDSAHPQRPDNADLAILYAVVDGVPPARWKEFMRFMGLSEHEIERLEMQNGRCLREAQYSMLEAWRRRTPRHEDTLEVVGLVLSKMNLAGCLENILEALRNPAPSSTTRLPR
Protocol: To track individual TNFR1 on the cell membrane, anti-TNFR1 IgG (was first papain digested to yield a Fab fragment. The Fab was then conjugated with biotin through the unique —SH at its C terminal. To prepare anti TNFR1 Fab QD conjugates, a solution of 0.7 nM anti TNFR1—Fab-biotin in 1 ml of DMEM was added drop-wise to 1 ml of 2 nM QD 605-streptavidin conjugate. Cell monolayers (50% confluent) previously serum starved for 1 hr were treated with 3OC12 HSL or left untreated and incubated with […] of the final anti TNFR1-Fab-QD solution at 25° C. for 2 min. The cells were then washed twice with PBS at 25° C., placed in serum-free medium, and loaded for imaging. For single-FcRγIIA tracking, Fc fragment was obtained by papain digestion of an anti-BSA IgG (Sigma Aldrich). Fc-QD conjugate was produced as described before. Cos-1 cells were transiently transfected with Fcγ RIIA plasmid, 24 hrs later, cells were stimulated with 3OC12 HSL or left untreated and incubated with […] of the final Fc-QD solution at 25° C. for 2 min. Quantum dot-labeled cells were imaged in TIRF mode. The fluorescence was excited at 488 nm and gated by a band-pass filter (575-640, Carl Zeiss). The excitation power was about 2 mW measured after the objective. Movies of 400 frames were acquired for each sample at a full-frame rate of 17 Hz. Individual trajectories were constructed by Utrack written in Matlab. Diffusion coefficient and plot area were calculated by customized programs written with Matlab. For motion pattern determination by MSD-t analysis 5: linear, simple Brownian diffusion; open-up parabolic, directed diffusion; open-down parabolic, restricted diffusion; and near zero, stationary.

TNFR1 (1-293) mutant = molecular target: T2, TNFR1 (1-293) mutant (Homo sapiens, UniProt P19438); experiment: Single molecule photo-bleaching step counting (MSFQ), TNFR1 in HELA cells; type: cell-based; conditions: DD-deleted TNFR1-eGFP
T2 construct: human TNFR1 (1-293) mutant was amplified from human TNFR1 with specific primers and cloned into peGFP-N1 vector; expressed in transfected cells; host or cells: HeLa cells
T2 sequence (P19438 30-293): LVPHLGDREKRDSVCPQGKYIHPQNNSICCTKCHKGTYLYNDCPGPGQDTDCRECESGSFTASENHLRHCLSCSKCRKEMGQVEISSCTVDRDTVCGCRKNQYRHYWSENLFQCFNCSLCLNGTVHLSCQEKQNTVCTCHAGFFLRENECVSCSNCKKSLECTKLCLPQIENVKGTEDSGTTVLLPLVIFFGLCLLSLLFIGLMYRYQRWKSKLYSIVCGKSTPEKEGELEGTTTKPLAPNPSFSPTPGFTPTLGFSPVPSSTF
Text: Then the cells were stimulated with HSLs, TNF α, or left untreated, and washed twice with PBS and fixed with 4% paraformaldehyde before imaging. GFP was excited at 488 nm with a laser power of 5 mW measured after the laser passing through the objective. […] The EM gain of the EMCCD camera was set at 300. Movies of 400 frames were acquired for each sample at a full-frame rate of 10 Hz. For imaging analysis, the background fluorescence was firstly subtracted from the movie acquired from the fixed cells using the rolling ball method in Image J software, and regions of interest on movies were selected manually according to the outline of cells. To analyze the bleaching steps, the fluorescence time courses of each fluorescent spots were first constructed by Image J plugin and bleaching steps were then counted manually.

reticuloma A20 = experiment: Annexin V/PI apoptosis detection, A20; type: cell-based
Protocol: as §1

EGFR = EGFR phosphorylation; type: cell-based; conditions: in the absence of the ligand
THP-1 cell line = experiment: Annexin V/PI apoptosis detection, THP-1; type: cell-based, human; conditions: THP-1
Protocol: as §1
In order to verify TNFR1-FADD-caspase8-caspase3 pathway inhibitor can block immunocyte apoptosis caused by 3OC12-HSL clinically. The inventors use a clinical version of caspase inhibitor Emricasan as a test. […] To be specific, in a 12 plate, THP-1 cells were cultured with indicated concentrations of 3OC and Emricasan. After 1 hr, cells were collection for flow cytometric analysis of AnnexinV and PI. […] In FIG. 17b, live cell percentage of different treatment were enumerated by flow cytometry. Bar graphs of live cell percentage are depicted by mean±SEM. Then samples prepared as in FIG. 17a and FIG. 17b were used for WB analysis for the activation (cleavage) of Caspase 8 and 3. […]

## CCCCCCCCCC(=O)CC(=O)N[C@H]1CCOC1=O [3OC12 HSL, N-(3-oxo-dodecanoyl) homoserine lactone]
T cell
  T cell death: significant T cell death
TNFR1
  TNFR1 diffusion coefficient: significantly increased
  TNFR1 x-y surface area coverage: high x-y surface area coverage
TNFR1; MSD analysis
  TNFR1 motion pattern: more likely to fall into the simple mode of motion
TNFR1 (1-293) mutant; untreated 7.1
  three step bleaching frequency: 17.0+/−1.3%
TNFR1 (1-293) mutant; untreated 60.0
  one step bleaching frequency: 47.1%
Reticuloma A20
  sensitivity to 3OC12 HSL: sensitive
EGFR
  EGFR phosphorylation: became detectable
THP-1 cell line
  sensitivity to 3OC12 HSL: sensitive
